In the supplement of paper PMC10307832:

What was measured:
Assay in all cases: relative viability (nuclei count vs DMSO), 5 days (fraction); higher = more cells survive
[1] = compound: C1COCCN1C2=NC(=NC3=C2OC4=C3C=CC=N4)C5=CC(=CC=C5)NC(=O)C6=CN=C(C=C6)N + CS(=O)(=O)N1CCN(Cc2cc3nc(-c4cccc5[nH]ncc45)nc(N4CCOCC4)c3s2)CC1 [Pictilisib] (partner 1 µM)
How it was run: (§1)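 Medians of duplicate plates are given as relative viability. That measure is the nuclei count in treated wells divided by the count in vehicle wells. Counts were taken on 4× images of lung cancer cell lines in 1536-well plates, 5 days after pin-tool dosing the day after seeding with one drug alone or a fixed anchor-drug dose plus five library-drug doses (not always all listed) in √10 steps.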

[2] = compound: CN1CCC(CNc2ccc3ncc(-c4cccc(OC(F)(F)F)c4)n3n2)CC1 [SGI-1776] + CS(=O)(=O)CCNCc1ccc(-c2ccc3ncnc(Nc4ccc(OCc5cccc(F)c5)c(Cl)c4)c3c2)o1 [Lapatinib] (partner 2 µM)
How it was run: as §1

[3] = compound: Nc1ccccc1NC(=O)c1ccc(CNC(=O)OCc2cccnc2)cc1 [Entinostat] + CC1(C)CCC(c2ccc(Cl)cc2)=C(CN2CCN(c3ccc(C(=O)NS(=O)(=O)c4ccc(N[C@H](CCN5CCOCC5)CSc5ccccc5)c(S(=O)(=O)C(F)(F)F)c4)cc3)CC2)C1 [Navitoclax] (partner 0.5 µM)
How it was run: as §1

[4] = compound: Nc1ccccc1NC(=O)c1ccc(CNC(=O)OCc2cccnc2)cc1 [Entinostat] + C[C@]1(O)C[C@@H](c2nc(-c3ccc4ccc(-c5ccccc5)nc4c3)c3c(N)nccn32)C1 [Linsitinib] (partner 1 µM)
How it was run: as §1

Cell Line | relative viability ([1]; first compound 0.02 µM) | relative viability ([1]; first compound 0.06325 µM) | relative viability ([1]; first compound 0.2 µM) | relative viability ([1]; first compound 0.6325 µM) | relative viability ([1]; first compound 2 µM) | relative viability ([2]; first compound 0.08 µM) | relative viability ([2]; first compound 0.8 µM) | relative viability ([2]; first compound 2.53 µM) | relative viability ([2]; first compound 8 µM) | relative viability ([3]; first compound 0.02 µM) | relative viability ([3]; first compound 0.06325 µM) | relative viability ([3]; first compound 0.2 µM) | relative viability ([3]; first compound 0.6325 µM) | relative viability ([3]; first compound 2 µM) | relative viability ([4]; first compound 0.02 µM) | relative viability ([4]; first compound 0.06325 µM) | relative viability ([4]; first compound 0.2 µM) | relative viability ([4]; first compound 0.6325 µM) | relative viability ([4]; first compound 2 µM)
NCI-H1703 | 0.23 | 0.255 | 0.239 | 0.251 | 0.232 | 1.3 | 0.922 | 0.608 | 0.257 | 1.22 | 1.21 | 1.37 | 1.05 | 0.575 | 0.883 | 0.805 | 0.857 | 0.919 | 0.582
NCI-H1975 | 0.276 | 0.309 | 0.278 | 0.273 | 0.257 | 0.922 | 0.928 | 0.899 | 0.838 | 0.906 | 0.782 | 0.751 | 0.289 | 0.188 | 0.791 | 0.755 | 0.692 | 0.302 | 0.27
NCI-H2023 | 0.273 | 0.211 | 0.216 | 0.23 | 0.193 | 0.918 | 1.21 | 1.04 | 0.219 | 0.916 | 0.692 | 0.496 | 0.163 | 0.138 | 0.671 | 0.778 | 0.48 | 0.191 | 0.133
COR-L 105 | 0.433 | 0.351 | 0.389 | 0.344 | 0.33 | 0.332 | 0.394 | 0.388 | 0.244 | 0.771 | 0.911 | 0.738 | 0.407 | 0.333 | 1.01 | 0.974 | 0.876 | 0.491 | 0.341
A549 | 0.628 | 0.577 | 0.397 | 0.391 | 0.24 | 0.965 | 0.993 | 0.958 | 0.652 | 1.22 | 1.21 | 1.07 | 0.787 | 0.395 | 0.595 | 0.646 | 0.627 | 0.648 | 0.602
NCI-H1993 | 0.76 | 0.708 | 0.861 | 0.791 | 0.85 | 0.839 | 0.958 | 0.841 | 0.636 | 0.869 | 0.857 | 0.789 | 0.841 | 0.73 | 0.642 | 0.832 | 0.673 | 0.65 | 0.661
Calu-6 | 1.03 | 0.932 | 0.87 | 0.888 | 0.472 | 1.12 | 1.11 | 1.01 | 0.771 | 0.761 | 0.859 | 0.774 | 0.524 | 0.308 | 0.859 | 0.961 | 0.852 | 0.739 | 0.502
NCI-H322M | 0.508 | 0.542 | 0.474 | 0.585 | 0.484 | 0.56 | 0.603 | 0.539 | 0.569 | 1.3 | 1.17 | 1.27 | 1.27 | 0.845 | 0.885 | 1.04 | 0.883 | 0.89 | 0.65
NCI-H2405 | 0.431 | 0.45 | 0.414 | 0.428 | 0.423 | 0.994 | 1.14 | 1.19 | 0.728 | 1 | 1.13 | 1.15 | 0.814 | 0.655 | 0.977 | 1.11 | 1.04 | 0.896 | 0.789
HCC-44 | 0.508 | 0.607 | 0.65 | 0.506 | 0.399 | 1.04 | 1.15 | 1.01 | 0.962 | 1.02 | 0.826 | 0.418 | 0.403 | 0.235 | 0.676 | 0.474 | 0.357 | 0.27 | 0.197
HCC-78 | 0.179 | 0.211 | 0.289 | 0.16 | 0.0668 | 0.848 | 0.7 | 0.783 | 0.698 | 0.739 | 0.652 | 0.498 | 0.218 | 0.181 | 0.496 | 0.395 | 0.306 | 0.156 | 0.151
COR-L23 | 1.02 | 1.21 | 0.845 | 0.843 | 0.574 | 1.1 | 0.9 | 0.914 | 0.922 | 0.86 | 0.8 | 0.865 | 0.441 | 0.123 | 0.829 | 0.763 | 0.748 | 0.416 | 0.132
NCI-H2009 | 0.8 | 0.819 | 0.804 | 0.804 | 0.603 | 0.985 | 0.897 | 1 | 0.766 | 1.21 | 1.19 | 1.13 | 0.816 | 0.52 | 1.28 | 1.18 | 1.06 | 0.8 | 0.651
NCI-H3122 | 0.621 | 0.588 | 0.531 | 0.515 | 0.451 | 0.964 | 1.05 | 1.07 | 0.988 | 1.04 | 1 | 1.12 | 0.989 | 0.712 | 1.02 | 1.03 | 1.07 | 1.08 | 0.868
NCI-H2228 | 0.486 | 0.346 | 0.38 | 0.234 | 0.256 | 0.816 | 1.21 | 0.927 | 0.415 | 1.03 | 0.758 | 0.52 | 0.365 | 0.349 | 0.587 | 0.635 | 0.578 | 0.365 | 0.354
NCI-H1944 | 0.358 | 0.365 | 0.356 | 0.37 | 0.316 | 0.81 | 0.727 | 0.915 | 0.601 | 0.985 | 0.998 | 0.938 | 0.485 | 0.311 | 1.12 | 1.19 | 1.23 | 0.554 | 0.357
NCI-H1755 | 0.481 | 0.494 | 0.377 | 0.405 | 0.357 | 0.995 | 1.09 | 0.967 | 0.788 | 1.05 | 0.954 | 0.806 | 0.451 | 0.332 | 0.984 | 0.988 | 0.866 | 0.625 | 0.412
A-427 | 0.696 | 0.621 | 0.675 | 0.653 | 0.507 | 1.05 | 1.02 | 1.01 | 0.966 | 1.05 | 1.01 | 0.958 | 0.715 | 0.669 | 1.16 | 1.15 | 1.01 | 1.07 | 0.825
SK-LU-1 | 0.553 | 0.671 | 0.634 | 0.536 | 0.467 | 0.861 | 1.03 | 0.782 | 0.667 | 0.633 | 0.76 | 1.1 | 0.37 | 0.368 | 1.1 | 1.04 | 0.909 | 0.657 | 0.516
NCI-H838 | 0.481 | 0.446 | 0.45 | 0.362 | 0.311 | 0.96 | 1.22 | 0.942 | 0.564 | 1.21 | 1.27 | 1.17 | 0.694 | 0.296 | 1.11 | 1.1 | 1.11 | 0.594 | 0.279
LOU-NH91 | 0.48 | 0.531 | 0.51 | 0.521 | 0.512 | 0.818 | 0.824 | 0.75 | 0.588 | 0.72 | 0.721 | 0.625 | 0.428 | 0.315 | 0.911 | 1.02 | 0.95 | 0.816 | 0.714
BEN | 0.587 | 0.556 | 0.597 | 0.501 | 0.589 | 0.695 | 0.739 | 0.705 | 0.532 | 0.0534 | 0.0509 | 0.0495 | 0.0765 | 0.062 | 0.974 | 0.928 | 0.83 | 0.537 | 0.249
NCI-H2085 | 0.441 | 0.474 | 0.464 | 0.446 | 0.421 | 0.838 | 0.847 | 0.748 | 0.687 | 1 | 1.06 | 1.04 | 0.801 | 0.604 | 0.871 | 0.865 | 0.788 | 0.574 | 0.499
NCI-H1792 | 0.26 | 0.27 | 0.258 | 0.17 | 0.288 | 0.908 | 0.988 | 0.867 | 0.756 | 0.729 | 0.674 | 0.576 | 0.535 | 0.222 | 0.476 | 0.502 | 0.392 | 0.276 | 0.153
EPLC-272H | 0.292 | 0.297 | 0.264 | 0.308 | 0.288 | 1.04 | 0.889 | 1.1 | 0.771 | 1.12 | 0.956 | 0.979 | 0.424 | 0.365 | 1.2 | 1.22 | 0.697 | 0.627 | 0.405
EKVX | 0.408 | 0.408 | 0.44 | 0.379 | 0.439 | 0.225 | 0.205 | 0.209 | 0.166 | 0.896 | 0.835 | 0.899 | 0.643 | 0.457 | 0.896 | 1.01 | 0.79 | 0.663 | 0.438
NCI-H1666 | 0.466 | 0.38 | 0.404 | 0.311 | 0.41 | 0.645 | 0.765 | 0.581 | 0.35 | 1.13 | 1.09 | 0.861 | 0.463 | 0.277 | 0.874 | 0.783 | 0.476 | 0.498 | 0.313
HCC-15 | 0.735 | 0.76 | 0.713 | 0.742 | 0.527 | 0.821 | 0.882 | 0.933 | 0.786 | 0.753 | 0.699 | 0.58 | 0.302 | 0.196 | 0.82 | 0.8 | 0.713 | 0.546 | 0.319
